Assay results reported in patent US20240368135A1 (VERTEX PHARMACEUTICALS INCORPORATED, priority 2021, published 2024).

biological target: human NaV 1.8 (Homo sapiens, UniProt Q9Y5Y9); experiment: E-VIPR assay detecting and measuring NaV inhibition properties; type: cell-based; conditions: HEK cells expressing truncated human NaV 1.8; no human serum; read-out: IC50 in the E-VIPR Assay
How it was run: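 Membrane potential was followed by coumarin/oxonol FRET during electrical field stimulation of matrigel-seeded HEK cells carrying truncated human NaV1.8 plus KIR2.1. Dosing used 11 points, 3-fold steps, top 300 nM final, 0.625% DMSO, with or without 25% human serum.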

human NaV 1.8, sequence (Q9Y5Y9 126-399 limits assumed): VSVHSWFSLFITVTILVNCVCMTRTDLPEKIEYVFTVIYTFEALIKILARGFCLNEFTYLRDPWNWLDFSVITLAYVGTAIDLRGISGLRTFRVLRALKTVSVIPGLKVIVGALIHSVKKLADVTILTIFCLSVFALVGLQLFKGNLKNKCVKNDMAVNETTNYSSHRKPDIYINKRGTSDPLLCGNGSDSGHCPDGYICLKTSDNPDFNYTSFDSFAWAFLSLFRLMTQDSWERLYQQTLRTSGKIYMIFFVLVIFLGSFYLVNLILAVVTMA
human NaV 1.8, sequence (Q9Y5Y9 660-890 limits assumed): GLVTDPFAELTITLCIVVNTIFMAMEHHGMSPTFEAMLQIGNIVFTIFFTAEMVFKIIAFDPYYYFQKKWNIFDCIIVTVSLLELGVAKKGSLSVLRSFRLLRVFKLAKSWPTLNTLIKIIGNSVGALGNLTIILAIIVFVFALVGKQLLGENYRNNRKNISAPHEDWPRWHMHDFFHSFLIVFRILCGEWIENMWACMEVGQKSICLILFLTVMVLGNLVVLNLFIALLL
human NaV 1.8, sequence (Q9Y5Y9 1148-1722 limits assumed): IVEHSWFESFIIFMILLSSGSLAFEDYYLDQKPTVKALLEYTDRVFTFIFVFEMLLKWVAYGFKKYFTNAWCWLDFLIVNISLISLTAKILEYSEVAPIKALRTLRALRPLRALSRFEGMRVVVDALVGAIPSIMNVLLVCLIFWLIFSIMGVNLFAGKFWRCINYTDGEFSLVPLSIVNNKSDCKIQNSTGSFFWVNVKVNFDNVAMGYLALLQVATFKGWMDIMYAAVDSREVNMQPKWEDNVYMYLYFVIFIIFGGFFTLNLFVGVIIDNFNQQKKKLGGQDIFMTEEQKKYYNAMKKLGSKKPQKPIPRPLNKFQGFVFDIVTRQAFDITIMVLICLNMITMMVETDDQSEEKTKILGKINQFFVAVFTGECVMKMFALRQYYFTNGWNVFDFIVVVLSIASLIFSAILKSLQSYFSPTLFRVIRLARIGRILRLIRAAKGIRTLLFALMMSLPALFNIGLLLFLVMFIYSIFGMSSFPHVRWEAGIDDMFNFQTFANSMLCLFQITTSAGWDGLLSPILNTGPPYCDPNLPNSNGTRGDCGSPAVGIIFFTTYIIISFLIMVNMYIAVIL

`COc1c([C@H]2[C@H](C(=O)NC3CS(=O)(=O)C3)O[C@@](C)(C(F)(F)F)[C@H]2C)ccc(F)c1F` [Compound 309, (2R,3S,4S,5R)-3-(3,4-difluoro-2-methoxyphenyl)-N-(1,1-dioxidothietan-3-yl)-4,5-dimethyl-5-(trifluoromethyl)tetrahydrofuran-2-carboxamide] and `COc1c([C@H]2[C@H](C(=O)Nc3ncn(C)c3C)O[C@@](C)(C(F)(F)F)[C@H]2C)ccc(F)c1F` [Compound 322, (2R,3S,4S,5R)-3-(3,4-difluoro-2-methoxyphenyl)-N-(1,5-dimethyl-1H-imidazol-4-yl)-4,5-dimethyl-5-(trifluoromethyl)-tetrahydrofuran-2-carboxamide] cannot be ordered by IC50: no less than 1000 nM for the first, no less than 1000 nM for the second.

First: COc1c([C@H]2[C@H](C(=O)Nc3ccnc(C4(N)COC4)n3)O[C@@](C)(C(F)(F)F)[C@H]2C)ccc(F)c1F [Compound 310, (2R,3S,4S,5R)-N-[2-(3-aminooxetan-3-yl)pyrimidin-4-yl]-3-(3,4-difluoro-2-methoxy-phenyl)-4,5-dimethyl-5-(trifluoromethyl)tetrahydrofuran-2-carboxamide]
Second: COc1c([C@H]2[C@H](C(=O)Nc3ccnc(C4(N)COC4)c3)O[C@@](C)(C(F)(F)F)[C@H]2C)ccc(F)c1F [Compound 340, (2R,3S,4S,5R)-N-(2-(3-aminooxetan-3-yl)pyridin-4-yl)-3-(3,4-difluoro-2-methoxyphenyl)-4,5-dimethyl-5-(trifluoromethyl)-tetrahydrofuran-2-carboxamide]
The IC50 of the first is higher: 10 to 100 nM for the first, less than 10 nM for the second.

`COc1c([C@H]2[C@H](C(=O)Nc3cn(C(F)F)nc3C)O[C@@](C)(C(F)(F)F)[C@H]2C)ccc(F)c1F` [Compound 311, (2R,3S,4S,5R)-3-(3,4-difluoro-2-methoxyphenyl)-N-(1-(difluoromethyl)-3-methyl-1H-pyrazol-4-yl)-4,5-dimethyl-5-(trifluoromethyl)tetrahydrofuran-2-carboxamide] and `COc1c([C@H]2[C@H](C(=O)Nc3cn(C[C@H](O)CO)nc3C)O[C@@](C)(C(F)(F)F)[C@H]2C)ccc(F)c1F` [Compound 332, (2R,3S,4S,5R)-3-(3,4-difluoro-2-methoxy-phenyl)-N-[1-[(2S)-2,3-dihydroxypropyl]-3-methyl-pyrazol-4-yl]-4,5-dimethyl-5-(trifluoromethyl)tetrahydrofuran-2-carboxamide] cannot be ordered by IC50: less than 10 nM for the first, less than 10 nM for the second.

`COc1c([C@H]2[C@H](C(=O)Nc3ccnc(N4CCN(C)CC4)c3)O[C@@](C)(C(F)(F)F)[C@H]2C)ccc(F)c1F` [Compound 312, (2R,3S,4S,5R)-3-(3,4-difluoro-2-methoxyphenyl)-4,5-dimethyl-N-(2-(4-methylpiperazin-1-yl)pyridin-4-yl)-5-(trifluoromethyl)-tetrahydrofuran-2-carboxamide] and `COc1c([C@H]2[C@H](C(=O)Nc3ccnc(N(C)C)c3)O[C@@](C)(C(F)(F)F)[C@H]2C)ccc(F)c1F` [Compound 320, (2R,3S,4S,5R)-3-(3,4-difluoro-2-methoxyphenyl)-N-(2-(dimethylamino)-pyridin-4-yl)-4,5-dimethyl-5-(trifluoromethyl)-tetrahydrofuran-2-carboxamide] fall in the same range of IC50: 10 to 100 nM for the first, 10 to 100 nM for the second.

First: COc1c([C@H]2[C@H](C(=O)Nc3cncn3C)O[C@@](C)(C(F)(F)F)[C@H]2C)ccc(F)c1F [Compound 313, (2R,3S,4S,5R)-3-(3,4-difluoro-2-methoxyphenyl)-4,5-dimethyl-N-(1-methyl-1H-imidazol-5-yl)-5-(trifluoromethyl)-tetrahydrofuran-2-carboxamide]
Second: COc1c([C@H]2[C@H](C(=O)Nc3c(C)ncn3C)O[C@@](C)(C(F)(F)F)[C@H]2C)ccc(F)c1F [Compound 319, (2R,3S,4S,5R)-3-(3,4-difluoro-2-methoxyphenyl)-N-(1,4-dimethyl-1H-imidazol-5-yl)-4,5-dimethyl-5-(trifluoromethyl)-tetrahydrofuran-2-carboxamide]
The IC50 of the first is lower: 10 to 100 nM for the first, no less than 1000 nM for the second.

`COc1c([C@H]2[C@H](C(=O)Nc3ccn4c(C)ncc4c3)O[C@@](C)(C(F)(F)F)[C@H]2C)ccc(F)c1F` [Compound 315, (2R,3S,4S,5R)-3-(3,4-difluoro-2-methoxyphenyl)-4,5-dimethyl-N-(3-methylimidazo[1,5-a]pyridin-7-yl)-5-(trifluoromethyl)-tetrahydrofuran-2-carboxamide] and `COc1c([C@H]2[C@H](C(=O)Nc3ccnc(-n4ccnc4C)c3)O[C@@](C)(C(F)(F)F)[C@H]2C)ccc(F)c1F` [Compound 316, (2R,3S,4S,5R)-3-(3,4-difluoro-2-methoxyphenyl)-4,5-dimethyl-N-(2-(2-methyl-1H-imidazol-1-yl)pyridin-4-yl)-5-(trifluoromethyl)-tetrahydrofuran-2-carboxamide] cannot be ordered by IC50: less than 10 nM for the first, less than 10 nM for the second.

`COc1c([C@H]2[C@H](C(=O)Nc3cnc4n3CCCC4)O[C@@](C)(C(F)(F)F)[C@H]2C)ccc(F)c1F` [Compound 317, (2R,3S,4S,5R)-3-(3,4-difluoro-2-methoxyphenyl)-4,5-dimethyl-N-(5,6,7,8-tetrahydroimidazo[1,2-a]pyridin-3-yl)-5-(trifluoromethyl)-tetrahydrofuran-2-carboxamide] and `COc1c([C@H]2[C@H](C(=O)Nc3cc4n(n3)CCOC4)O[C@@](C)(C(F)(F)F)[C@H]2C)ccc(F)c1F` [Compound 321, (2R,3S,4S,5R)-3-(3,4-difluoro-2-methoxyphenyl)-N-(6,7-dihydro-4H-pyrazolo[5,1-c][1,4]oxazin-2-yl)-4,5-dimethyl-5-(trifluoromethyl)-tetrahydrofuran-2-carboxamide] cannot be ordered by IC50: 100 to 1000 nM for the first, no less than 1000 nM for the second.

First: COc1c([C@H]2[C@H](C(=O)Nc3cn(C)cn3)O[C@@](C)(C(F)(F)F)[C@H]2C)ccc(F)c1F [Compound 318, (2R,3S,4S,5R)-3-(3,4-difluoro-2-methoxyphenyl)-4,5-dimethyl-N-(1-methyl-1H-imidazol-4-yl)-5-(trifluoromethyl)-tetrahydrofuran-2-carboxamide]
Second: COc1c([C@H]2[C@H](C(=O)Nc3csnc3C)O[C@@](C)(C(F)(F)F)[C@H]2C)ccc(F)c1F [Compound 327, (2R,3S,4S,5R)-3-(3,4-difluoro-2-methoxyphenyl)-4,5-dimethyl-N-(3-methylisothiazol-4-yl)-5-(trifluoromethyl)-tetrahydrofuran-2-carboxamide]
The IC50 of the first is higher: no less than 1000 nM for the first, less than 10 nM for the second.

First: COc1c([C@H]2[C@H](C(=O)N3Cc4ccncc4C3)O[C@@](C)(C(F)(F)F)[C@H]2C)ccc(F)c1F [Compound 323, ((2R,3S,4S,5R)-3-(3,4-difluoro-2-methoxyphenyl)-4,5-dimethyl-5-(trifluoromethyl)-tetrahydrofuran-2-yl)(1,3-dihydro-2H-pyrrolo[3,4-c]pyridin-2-yl)methanone]
Second: COc1c([C@H]2[C@H](C(=O)Nc3ccc(SC)nc3)O[C@@](C)(C(F)(F)F)[C@H]2C)ccc(F)c1F [Compound 324, (2R,3S,4S,5R)-3-(3,4-difluoro-2-methoxyphenyl)-4,5-dimethyl-N-(6-(methylthio)pyridin-3-yl)-5-(trifluoromethyl)-tetrahydrofuran-2-carboxamide]
The IC50 of the first is higher: no less than 1000 nM for the first, 10 to 100 nM for the second. The second is the more potent here.

First: COc1c([C@H]2[C@H](C(=O)Nc3cn(C4CCOCC4)nc3C)O[C@@](C)(C(F)(F)F)[C@H]2C)ccc(F)c1F [Compound 325, (2R,3S,4S,5R)-3-(3,4-difluoro-2-methoxyphenyl)-4,5-dimethyl-N-(3-methyl-1-(tetrahydro-2H-pyran-4-yl)-1H-pyrazol-4-yl)-5-(trifluoromethyl)-tetrahydrofuran-2-carboxamide]
Second: CNC1(c2cc(NC(=O)[C@@H]3O[C@@](C)(C(F)(F)F)[C@@H](C)[C@H]3c3ccc(F)c(F)c3OC)ccn2)COC1 [Compound 361, (2R,3S,4S,5R)-3-(3,4-difluoro-2-methoxyphenyl)-4,5-dimethyl-N-(2-(3-(methylamino)oxetan-3-yl)pyridin-4-yl)-5-(trifluoromethyl)tetrahydrofuran-2-carboxamide]
The IC50 of the first is higher: 10 to 100 nM for the first, less than 10 nM for the second. The second is the more potent here.

First: COc1c([C@H]2[C@H](C(=O)Nc3ccc4cnnn4c3)O[C@@](C)(C(F)(F)F)[C@H]2C)ccc(F)c1F [Compound 329, (2R,3S,4S,5R)-N-([1,2,3]triazolo[1,5-a]pyridin-6-yl)-3-(3,4-difluoro-2-methoxyphenyl)-4,5-dimethyl-5-(trifluoromethyl)-tetrahydrofuran-2-carboxamide]
Second: COc1c([C@H]2[C@H](C(=O)Nc3ccc(C[C@@H](O)CO)nc3)O[C@@](C)(C(F)(F)F)[C@H]2C)ccc(F)c1F [Compound 334, (2R,3S,4S,5R)-3-(3,4-difluoro-2-methoxy-phenyl)-N-[6-[(2R)-2,3-dihydroxypropyl]-3-pyridyl]-4,5-dimethyl-5-(trifluoromethyl)tetrahydrofuran-2-carboxamide]
The IC50 of the first is lower: less than 10 nM for the first, 10 to 100 nM for the second.

Compared with `COc1c([C@H]2[C@H](C(=O)Nc3ccnc(C[C@H](O)CO)c3)O[C@@](C)(C(F)(F)F)[C@H]2C)ccc(F)c1F` [Compound 333, (2R,3S,4S,5R)-3-(3,4-difluoro-2-methoxy-phenyl)-N-[2-[(2S)-2,3-dihydroxypropyl]-4-pyridyl]-4,5-dimethyl-5-(trifluoromethyl)tetrahydrofuran-2-carboxamide], `COc1c([C@H]2[C@H](C(=O)Nc3cc(C[C@@H](O)CO)n(C)n3)O[C@@](C)(C(F)(F)F)[C@H]2C)ccc(F)c1F` [Compound 335, (2R,3S,4S,5R)-3-(3,4-difluoro-2-methoxy-phenyl)-N-[5-[(2R)-2,3-dihydroxypropyl]-1-methyl-pyrazol-3-yl]-4,5-dimethyl-5-(trifluoromethyl)tetrahydrofuran-2-carboxamide] is higher in IC50: less than 10 nM for the first, no less than 1000 nM for the second. The first is the more potent here.

`COc1c([C@H]2[C@H](C(=O)Nc3cc(C4(N)COC4)ncc3F)O[C@@](C)(C(F)(F)F)[C@H]2C)ccc(F)c1F` [Compound 341, (2R,3S,4S,5R)-N-(2-(3-aminooxetan-3-yl)-5-fluoropyridin-4-yl)-3-(3,4-difluoro-2-methoxyphenyl)-4,5-dimethyl-5-(trifluoromethyl)-tetrahydrofuran-2-carboxamide] gave an IC50 of less than 10 nM.
